Measurements taken from paper PMC11206789, “Controlling the Solubility, Release Rate and Permeation of Riluzole with Cyclodextrins” (Pharmaceutics, 2024).

Key:
[1] = RLZ/CD stability constant from phase-solubility diagrams, van't Hoff thermodynamics; format: physicochemical; details: for Complexation (stability) constant KCS of RLZ/CD complex: 1:1 complex
Experimental: The standard (at 298.15 K) enthalpy change ( ΔHC0,S ) and the standard entropy change ( ΔSC0,S ) upon complex formation were calculated with the help of the integral form of the van’t Hoff’s equation:(4) lnKCS=−ΔHC0,S/RT+ΔSC0,S/R where T = 298.15 K, and R is the universal gas constant. A plot of lnKCS versus 1/T produces Slope=−ΔHC0,S/R and intercept equal to ΔSC0,S/R . The standard (at 298.15 K) change of the complexation Gibbs energy ( ΔGC0,S ) was calculated as follows:(5) ΔGC0,S=−RTlnKCS

[2] = 298.15 K, in water with undefined pH; cited from earlier work
[3] = Permeation under dynamic conditions (D/P setup), cellulose membrane; format: in vitro ADME; details: RC membrane, 310.15 K
Source text: The membrane of regenerated cellulose MWCO 12–14 kDa (Visking dialysis tubing MWCO 12–14 kDa, Medicell Membranes Ltd., London, UK) was applied as a barrier between the donor and receptor cells with an effective surface area of 1.77 cm^2. In addition, the PermeaPad barrier (PP) (PHABIOC, Germany, https://www.permeapad.com (accessed on 1 February 2023)) and polydimethylsiloxane-polycarbonate (55% polydimethylsiloxane and 45% polycarbonate, 40 μm in thickness) membrane “Carbosil” (PDS) (PENTAMED, Moscow, Russia, www.penta-med.ru) were used in a series of tests. The volume of the receptor compartment was the same as the donor one—7 mL. The donor and receptor cells were assembled with a membrane between them. The receptor compartment was filled with 7 mL of buffer pH 6.8. In the case of the samples with CD, the receptor solution contained the amount of CD equivalent to that in the solid sample. The solution in the receptor cell was stirred at 500 rpm. The constant temperature of 310.15 K was maintained. […]
Quantitative analysis of the permeation was evaluated using the flux (J) through the membrane which was determined as a slope of the permeation profiles representing the amount of permeated compound over the surface area (dQ/A) versus the time (t) in accordance with the equation:(20) J=dQ/A×dt

[4] = Dissolution of solid samples under dynamic conditions, side-by-side cell; format: physicochemical; details: for DE60, dissolution efficacy at 60 min / DPP, dissolution performance parameter / Q15, amount of RLZ dissolved at 15 min: buffer pH 6.8, 310 K; for Q15, amount of RLZ dissolved at 15 min: RLZ amount of 100 mg daily dose; for Dose dissolved during 180 min: buffer pH 6.8, 310.15 K
Experimental: The volume of the donor compartment was 7 mL. The powdered samples were placed in the donor cell. Then, 7 mL of buffer pH 6.8 was added to the donor compartment (start of the experiment). The solution was stirred with a stirring bar at a fixed speed of 500 rpm. The cell was maintained at 310.15 K during the experiment via water circulating. The samples of the solutions (V = 0.4 mL) from the donor cell were withdrawn every 5, 10, 15, 20, 25, 30, 40, 60, 90, 120, and 180 min followed by immediate replacement with fresh medium. The experiment lasted 3 h. The samples from the donor cell were filtered (syringe nylon filter, 13 mm diameter, pore size 0.45 μm). The concentrations of the samples were measured in a 96-well UV black plate (Costar) using a spectrophotometer (Spectramax 190; Molecular devices, Molecular Devices Corporation, San Jose, CA, USA). The kinetic curves of the dissolution/release of pure RLZ and RLZ from the solid samples were obtained.
The dissolution performance parameter (DPP), was calculated as follows:(16) DPP=AUCactual/AUCtheoretical×100% where AUCactual is the integral area under the curve C0Ct, and AUCtheoretical is the integral area under the curve CmaxCmax. Dissolution efficacy after 60 min (DE60)—a percentage of the area of the rectangle described by 100% dissolution at 60 min was determined by the calculation of the area under a dissolution curve up to 60 min by the following equation [49]:(17) DE60=∫060Qdt/Q100%×60×100% where Q is the percentage of the dissolved drug, t is the dissolution time point at 60 min.

| Compound | Stability constant of cyclodextrin complex with RLZ [2] [M⁻¹] | Increase of flux across the membrane, 30–180 min versus up to 30 min [3] [fold] | DE60, dissolution efficacy at 60 min [4] [%] | DPP, dissolution performance parameter [4] [%] | Q15, amount of RLZ dissolved at 15 min [4] [%] | also measured |
| --- | --- | --- | --- | --- | --- | --- |
| OC[C@H]1O[C@@H]2O[C@H]3[C@H](O)[C@@H](O)[C@@H](O[C@H]4[C@H](O)[C@@H](O)[C@@H](O[C@H]5[C@H](O)[C@@H](O)[C@@H](O[C@H]6[C@H](O)[C@@H](O)[C@@H](O[C@H]7[C@H](O)[C@@H](O)[C@@H](O[C@H]1[C@H](O)[C@H]2O)O[C@@H]7CO)O[C@@H]6CO)O[C@@H]5CO)O[C@@H]4CO)O[C@@H]3CO [α-CD, α-cyclodextrin] |  |  |  |  |  | Fold lower association constant of RLZ as compared to SBE-β-CD [1]: approximately 11 fold; Complexation (stability) constant KCS of RLZ/CD complex ([1]; pH 6.8, 310.15 K): 102.3 M⁻¹ |
| CC(O)COC[C@H]1O[C@@H]2O[C@H]3[C@H](O)[C@@H](O)[C@@H](O[C@H]4[C@H](O)[C@@H](O)[C@@H](O[C@H]5[C@H](O)[C@@H](O)[C@@H](O[C@H]6[C@H](O)[C@@H](O)[C@@H](O[C@H]7[C@H](O)[C@@H](O)[C@@H](O[C@H]8[C@H](O)[C@@H](O)[C@@H](O[C@H]1[C@H](O)[C@H]2O)O[C@@H]8COCC(C)O)O[C@@H]7COCC(C)O)O[C@@H]6COCC(C)O)O[C@@H]5COCC(C)O)O[C@@H]4COCC(C)O)O[C@@H]3COCC(C)O (stereo partly drawn) [HP-β-CD, hydroxypropyl-β-cyclodextrin] | 2327 |  |  |  |  |  |
| Nc1nc2ccc(OC(F)(F)F)cc2s1 [RLZ_raw] |  | 1.3 | 30.0 | 46.2 | 22.9 | Dose dissolved during 180 min ([4]; listed as raw RLZ): 62% |
| Nc1nc2ccc(OC(F)(F)F)cc2s1 [RLZ_gr] |  | 1.3 | 39.9 | 57.0 | 28.3 | Dose dissolved during 180 min ([4]; listed as ground RLZ): 72%; Similarity factor f2 ([4]; reference raw RLZ, f2 > 50 shows similarity): 49.9 |
| COC[C@H]1O[C@@H]2O[C@H]3[C@H](O)[C@@H](OC)[C@@H](O[C@H]4[C@H](O)[C@@H](OC)[C@@H](O[C@H]5[C@H](O)[C@@H](OC)[C@@H](O[C@H]6[C@H](O)[C@@H](OC)[C@@H](O[C@H]7[C@H](O)[C@@H](OC)[C@@H](O[C@H]8[C@H](O)[C@@H](OC)[C@@H](O[C@H]1[C@H](O)[C@H]2OC)O[C@@H]8COC)O[C@@H]7COC)O[C@@H]6COC)O[C@@H]5COC)O[C@@H]4COC)O[C@@H]3COC [DM-β-CD, 2,6-di-O-methyl-β-cyclodextrin] | 1609.1 |  |  |  |  |  |
| sulfobutylether-β-cyclodextrin [SBE-β-CD] |  |  |  |  |  | Fold more stable RLZ complex as compared to α-CD ([1]; from Table 2): 11 fold; Complexation (stability) constant KCS of RLZ/CD complex ([1]; pH 6.8, 298.15 K): 1116.0 M⁻¹ |
